In patent US9150555B2, “Amide derivative and use thereof” (Mitsubishi Tanabe Pharma Corporation, priority 2010, dated 2015) one finds inhibition and IC50 data, which are given here for 32 compounds.

Counter-ions that a name gives are not always drawn.

One data set deals with hERG (Homo sapiens, UniProt Q12809). The data set can be described thus: Effects on hERG current (whole-cell clamping). To be noted: human, HEK 293 cells that express hERG, pH 7.4, hERG inhibition rate (%) (1 μM), 1 μM; tail peak current; hERG-expressed HEK 293 cells. In general terms: hERG is a cardiac potassium channel; its block is linked to QT prolongation.
hERG, sequence (Q12809 whole entry): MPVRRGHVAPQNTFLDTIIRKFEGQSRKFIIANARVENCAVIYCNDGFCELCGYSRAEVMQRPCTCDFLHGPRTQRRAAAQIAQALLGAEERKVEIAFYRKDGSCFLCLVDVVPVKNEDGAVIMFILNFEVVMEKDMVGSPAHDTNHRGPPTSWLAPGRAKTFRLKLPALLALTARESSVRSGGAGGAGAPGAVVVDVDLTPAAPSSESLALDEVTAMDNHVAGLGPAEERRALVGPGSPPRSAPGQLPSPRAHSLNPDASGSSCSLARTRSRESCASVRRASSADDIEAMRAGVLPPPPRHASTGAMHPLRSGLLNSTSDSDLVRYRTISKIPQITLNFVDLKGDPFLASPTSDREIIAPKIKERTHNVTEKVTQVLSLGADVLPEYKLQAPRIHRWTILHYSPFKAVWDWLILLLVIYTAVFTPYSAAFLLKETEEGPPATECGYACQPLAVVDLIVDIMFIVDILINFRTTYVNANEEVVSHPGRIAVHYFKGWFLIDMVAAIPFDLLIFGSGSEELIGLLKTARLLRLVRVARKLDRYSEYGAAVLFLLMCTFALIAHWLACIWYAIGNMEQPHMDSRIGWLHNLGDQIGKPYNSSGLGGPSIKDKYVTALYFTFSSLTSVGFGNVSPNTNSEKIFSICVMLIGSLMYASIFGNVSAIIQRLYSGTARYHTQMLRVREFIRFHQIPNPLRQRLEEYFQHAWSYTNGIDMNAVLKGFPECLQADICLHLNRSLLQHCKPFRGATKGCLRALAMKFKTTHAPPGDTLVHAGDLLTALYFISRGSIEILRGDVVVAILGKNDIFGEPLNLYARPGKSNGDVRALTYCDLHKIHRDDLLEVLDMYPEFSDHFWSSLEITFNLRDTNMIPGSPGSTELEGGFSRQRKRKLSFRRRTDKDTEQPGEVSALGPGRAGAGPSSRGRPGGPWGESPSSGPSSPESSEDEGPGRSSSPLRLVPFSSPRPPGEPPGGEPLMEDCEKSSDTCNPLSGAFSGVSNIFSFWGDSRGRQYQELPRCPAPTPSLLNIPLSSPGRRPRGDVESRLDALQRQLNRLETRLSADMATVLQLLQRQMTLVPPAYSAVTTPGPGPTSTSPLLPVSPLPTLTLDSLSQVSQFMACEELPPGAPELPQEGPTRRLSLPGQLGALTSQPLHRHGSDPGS
Data set [1] concerns IL-17 production of mouse spleen cells stimulated by rm-IL-23. The data set can be described thus: Production of IL-17 induced when mouse spleen cells were stimulated by recombinant mouse interleukin-23 (rm-IL-23). In kind it is cell-based. To be noted: Mus musculus, 72 h, inhibition of IL-17 production, DBA/1J mouse spleen cells, rm-IL-23 1 nmol/L, ELISA. As for the experimental part:
Effect on Production of IL-17 Induced when Mouse Spleen Cells were Stimulated by Recombinant Mouse Interleukin-23 (rm-IL-23)
An RPMI1640 (Sigma-Aldrich) was used as a medium, to which penicillin G potassium (50 units/mL; Gibco), streptomycin (50 μg/mL; Gibco) and 2-mercaptoethanol (50 μmol/l; Sigma-Aldrich) were added, and then 10% of fetal calf serum (FCS; Cell Culture Technology) inactivated at 56° C. for 30 minutes was added and used in the Test. The test compound was dissolved in dimethylsulfoxide and diluted with 10% FCS-containing RPMI1640 medium to a desired concentration and used in the test. The spleens were aseptically taken out from 6-7 week-old male DBA/1J mice (Charles River Japan, Inc.) and a single cell suspension of spleen cells was prepared and hemolyzed by hypotonic treatment with a mixture of 0.83% aqueous solution of ammonium chloride and Tris-HCl buffer of pH 7.65 (9:1). A cell suspension prepared by 10% FCS-containing RPMI1640 medium was added to flat-bottomed 96 well microtestplate at 2×10^5 cells/well. Test compounds and rm-IL-23 (R&D systems) were diluted with a medium to 1 to 1,000 nmol/L, and 1 nmol/L of the final concentration respectively, which were added and cultured at 37° C., 5% carbon dioxide and 95% air for 72 hours. After completion of the culture, culture supernatant was sampled and an amount of IL-17 production was determined by ELISA method. After sampling the supernatant, WST-8 (Seikagaku Corporation) was added at 10 μl/well and cultured at 37° C., 5% carbon dioxide and 95% air for 4 hours. Then, absorbance (O.D.: Optical Density) at 450 nm was measured by a microplate reader and the value was adopted as an index of cell survivability. An inhibition rate (%) was calculated according to the following formula on the basis of an average of an amount of IL-17 production and a O.D. values of the well containing a test compound of each concentration.
Based on the dose-response curve obtained by plotting the inhibition rate in the longitudinal axis and concentration in the horizontal axis, the concentration of the compound which inhibits the level to 50% of the value of the control group (IC50; nmol/L) was determined by linear regression analysis. The results was shown in the next Table 1

Protocol for hERG: Dimethylsulfoxide was used as a vehicle and hERG-expressed HEK 293 cells (Cytomyx) were used as test cells. Test cells were once cultured and subdivided and were stored under frozen condition in liquid nitrogen. In the study, thawed and subcultured cells having less than 30 of the passage number were used. Test cells were cultured in a carbon dioxide incubator BNP-110M (Tabai Espec Corp.) at 37±1° C., and 5.0±0.5% of carbon dioxide concentration. The component of culture medium was MEM (Minimum Essential Medium) supplemented with 10 vol % fetal bovine serum (non-activated), 1 mmol/L sodium pyruvate, 0.1 mmol/L non-essential amino acid, 100 U/mL penicillin with 100 μg/mL streptomycin. To select gene-expressing cells, 400 μg/mL G418 Sulphate (Invitrogen) was added to the culture medium. In the dishes for the measurement, the medium which not contain G418 Sulphate (Invitrogen) was used.
As to seeding of cells for measurement, subcultured cells which became confluent were treated with 0.25% trypsin-solution containing 1 mmol/L EDTA (Invitrogen) to remove from the plate, and seeded on sterilized collagen-coated cover glass (Iwaki, AGC Techno Glass Co., LTD). The medium was exchanged appropriately, including the day of measurement.
A perfusion method was applied to the experiment. Test cells were perfused (perfusion speed: approximately 4 mL/min) with an external solution containing specified concentrations of test compounds (component of external solution: 137 mmol/L of sodium chloride, 4 mmol/L of potassium chloride, 10 mmol/L of HEPES, 1.8 mmol/L of calcium chloride, 1 mmol/L of magnesium chloride and 10 mmol/L of glucose; adjusted to pH 7.4±0.1 with sodium hydroxide aqueous solution). […] When effects were observed, the perfusion was continued until the maximum response was observed. […] The data were obtained from one experiment or more and the cells which were incubated in a carbon dioxide incubator after seeding and attached to cover slips were used for the measurement.
A whole-cell clamping method was applied to the measurement. Test cells were perfused (perfusion speed: approximately 4 mL/min) with an external solution (component of external solution: 137 mmol/L of sodium chloride, 4 mmol/L of potassium chloride, 10 mmol/L of HEPES, 1.8 mmol/L of calcium chloride, 1 mmol/L of magnesium chloride and 10 mmol/L of glucose; adjusted to pH 7.4±0.1 with sodium hydroxide aqueous solution). A glass electrode with a resistance of 2 to 6 MΩ, filled with an internal solution (component: 130 mmol/L of potassium chloride, 1 mmol/L of magnesium chloride, 5 mmol/L of EGTA, 10 mmol/L of HEPES and 5 mmol/L of ATP adjusted to pH 7.2±0.1 with sodium hydroxide aqueous solution) was used. After rupturing cell membrane with glass electrode, the cell membrane voltage was held at −80 mV via a patch clamp software (pCLAMP9 [Axon CNS], Molecular Devices) using patch clamp amplifier (EPC8, HEKA). […] Test cells and the cell-attached cover glass were changed every treatment. Temperature of the fluid in a perfusion fluid tank was 24±2° C.
The obtained current was recorded on a computer via a patch clamp amplifier using patch clamp software. An evaluation item was a tail peak current.
A tail peak current was analyzed using analyzing software (Clampfit 9 [Axon CNS], MolecularDevices). Each 2 pulses of before and after perfusion of test compound for each concentration was analyzed, and a peak values of the tail current on the pulses were determined. The inhibition ratio was determined according to the following equation:

`Cc1cc(NC(=O)c2cnn(-c3ccc(C(F)(F)F)cn3)c2C)cnc1C1=CC[C@H](N2CCOCC2)CC1` [Example D21, (R)-5-Methyl-N-{5-methyl-6-[4-(morpholin-4-yl)cyclohex-1-en-1-yl]pyridin-3-yl}-1-[5-(trifluoromethyl)pyridin-2-yl]-1H-pyrazole-4-carboxamide] displayed an inhibition at 1 µM against hERG of 14.3%. The IC50 in data set [1] came to 39.5 nM.

The compound `Cc1cc(NC(=O)c2cnn(-c3ccc(C(F)(F)F)cn3)c2C)cnc1C1=CC[C@@H](N2CCOCC2)CC1` [Example D22, (S)-5-Methyl-N-{5-methyl-6-[4-(morpholin-4-yl)cyclohex-1-en-1-yl]pyridin-3-yl}-1-[5-(trifluoromethyl)pyridin-2-yl]-1H-pyrazole-4-carboxamide] had an inhibition at 1 µM on hERG of 31%. Moreover, the IC50 in data set [1] amounted to 36.2 nM.

In turn, `Cc1cc(NC(=O)c2cnn(-c3ccc(C(F)(F)F)cn3)c2C)cnc1C1=CCC(O)CC1` (stereo not shown) [Example D23, N-[6-(4-Hydroxycyclohex-1-en-1-yl)-5-methylpyridin-3-yl]-5-methyl-1-[5-(trifluoromethyl)-pyridin-2-yl]-1H-pyrazole-4-carboxamide] showed an inhibition at 1 µM on hERG of 20.2%. In addition, in data set [1], the 50% inhibitory concentration (IC50) stood at 105 nM.

The compound `Cc1cc(NC(=O)c2cnn(-c3ncc(C(F)(F)F)cc3F)c2C)cnc1C1=CCC(N2CCOCC2)CC1` (stereo not shown) [Example D24, 1-[3-Fluoro-5-(trifluoromethyl)pyridin-2-yl]-5-methyl-N-{5-methyl-6-[4-(morpholin-4-yl)cyclohex-1-en-1-yl]pyridin-3-yl}-1H-pyrazole-4-carboxamide mesylate] showed an inhibition at 1 µM on hERG of 20.9%. The concentration for half-maximal inhibition (IC50) in data set [1] was 40.3 nM.

Consider `Cc1cc(NC(=O)c2cnn(-c3ncc(C(F)(F)F)cc3F)c2C)cnc1C1=CCC(O)CC1` (stereo not shown) [Example D25, 1-[3-Fluoro-5-(trifluoromethyl)pyridin-2-yl]-5-methyl-N-[5-methyl-6-(4-hydroxycyclohex-1-en-1-yl)pyridin-3-yl]-1H-pyrazole-4-carboxamide], for which the inhibition at 1 µM against hERG stood at 4.2%. Moreover, in data set [1], the 50% inhibitory concentration (IC50) was determined as 148 nM.

As for `Cc1c(C(=O)Nc2ccc([C@]3(C#N)CC[C@@H](N4CCOCC4)CC3)nc2)cnn1-c1ccc(C(C)C)cn1` [Example D26, N-{6-[r-1-Cyano-c-4-(morpholin-4-yl)cyclohexyl]pyridin-3-yl}-1-(5-isopropylpyridin-2-yl)-5-methyl-1H-pyrazole-4-carboxamide mesylate], at hERG, the inhibition at 1 µM stood at 26.4%. In addition, the 50% inhibitory concentration (IC50) in data set [1] was found to be 125 nM.

Turning to `Cc1c(C(=O)Nc2ccc(C3(C#N)CCC4(CC3)OCCO4)nc2)cnn1-c1ccc(Br)cn1` [Example D29], the inhibition at 1 µM against hERG was 27.7%. In addition, the 50% inhibitory concentration (IC50) in data set [1] was 86.9 nM.

With `Cc1c(C(=O)Nc2ccc(C3(C#N)CCC4(CC3)OCCO4)nc2)cnn1-c1ccc(C(F)(F)F)cn1` [Example D41], testing at 1 µM at hERG gave an inhibition of 26.4%. In addition, the half-maximal inhibitory concentration (IC50) in data set [1] stood at 32.8 nM.

Regarding `Cc1c(C(=O)Nc2ccc([C@]3(O)CC[C@@H](N4CCOCC4)CC3)nc2)cnn1-c1ccc(C(F)(F)F)cc1` [Example D53], the inhibition at 1 µM against hERG is 25.1%. The IC50 in data set [1] came to 169 nM.

For `Cc1c(C(=O)Nc2ccc([C@H]3CC[C@H](N4CCOCC4)CC3)nc2)cnn1-c1ccc(C(F)F)cn1` [Example D63], the inhibition at 1 µM at hERG was determined as 40.4%. The IC50 in data set [1] turned out to be 207 nM.

Regarding `Cc1c(C(=O)Nc2ccc([C@H]3CC[C@H](N4CCOCC4)CC3)nc2)cnn1-c1ccc(C2CC2)cn1` [Example D64], testing at 1 µM against hERG gave an inhibition of 27.9%. In data set [1], the 50% inhibitory concentration (IC50) turned out to be 160 nM.

As for `Cc1c(C(=O)Nc2ccc([C@H]3CC[C@H](N4CCOCC4)CC3)nc2)cnn1-c1ncc(C2CC2)cc1F` [Example D65], the inhibition at 1 µM at hERG is 5.5%. In data set [1], the IC50 was determined as 139 nM.

`Cc1c(C(=O)Nc2ccc(C3=CCC(N4CCOCC4)CC3)nc2)cnn1-c1ccc(C(F)(F)F)cc1` (stereo not shown) [Example D71] returned an inhibition at 1 µM against hERG of 16.5%. Besides, the IC50 in data set [1] stood at 62.5 nM.

Regarding `Cc1c(C(=O)Nc2ccc([C@]3(C#N)CC[C@@H](N4CCOCC4)CC3)nc2)cnn1-c1ccc(C(C)(C)C)cc1` [Example D88], the inhibition at 1 µM against hERG amounted to 43%. Moreover, the half-inhibitory concentration (IC50) in data set [1] was determined as 52.6 nM.

In the case of `Cc1c(C(=O)Nc2ccc([C@]3(C#N)CC[C@@H](N4CCOCC4)CC3)nc2)cnn1-c1ccc(F)cc1` [Example D89], on hERG, testing at 1 µM gave an inhibition of 44.4%. Also, in data set [1], the 50% inhibitory concentration (IC50) amounted to 183 nM.

The compound `Cc1c(C(=O)Nc2ccc([C@]3(C#N)CC[C@@H](N4CCOCC4)CC3)nc2)cnn1-c1ccc(C(C)(C)C)cn1` [Example D104] showed an inhibition at 1 µM at hERG of 13.8%. The IC50 in data set [1] is 212 nM.

The compound `Cc1ccc(-n2ccc(C(=O)Nc3ccc(C4(C#N)CCC5(CC4)OCCO5)nc3)c2)cc1C` [Example D153] came in with an inhibition at 1 µM against hERG of 47.6%. For the same compound, the IC50 in data set [1] is 55.1 nM.

As to `Cc1c(C(=O)Nc2ccc(C3CCC4(CC3)OCCO4)nc2)cnn1-c1ccc(C(C)(C)C)cc1` [Example D165], at 1 µM the inhibition against hERG was 8.9%. Also, in data set [1], the 50% inhibitory concentration (IC50) is 44 nM.

With `Cc1cc(NC(=O)c2cnn(-c3ncc(C(F)(F)F)cc3Cl)c2C)cnc1C1=CCC(N2CCOCC2)CC1` (stereo not shown) [Example D175], at 1 µM the inhibition at hERG was 31.7%. In data set [1], the IC50 was found to be 49.8 nM.

As for `Cc1cc(NC(=O)c2cnn(-c3ncc(C4CC4)cc3F)c2C)cnc1C1=CCC(N2CCOCC2)CC1` (stereo not shown) [Example D177], on hERG, the inhibition at 1 µM was 13%. For the same compound, in data set [1], the half-inhibitory concentration (IC50) turned out to be 66 nM.

Take `Cc1cc(NC(=O)c2cnn(-c3ncc(C(F)(F)F)cc3C)c2C)cnc1C1=CCC(N2CCOCC2)CC1` (stereo not shown) [Example D188]: the inhibition at 1 µM against hERG was 40%. Also, the 50% inhibitory concentration (IC50) in data set [1] stood at 86.3 nM.

`Cc1cc(NC(=O)c2cnn(-c3ccc(C4CC4)cn3)c2C)cnc1C1=CCN(C2CCOC2C)CC1` (stereo not shown) [Example D191] yielded an inhibition at 1 µM at hERG of 47.6%. Besides, the 50% inhibitory concentration (IC50) in data set [1] stood at 58.4 nM.

On to `Cc1cc(NC(=O)c2cnn(-c3ncc(C(F)(F)F)cc3F)c2C)cnc1C1CCC2(CC1)OCCO2` [Example D196, N-[6-(1,4-Dioxaspiro[4.5]dec-8-yl)-5-methylpyridin-3-yl]-1-[3-fluoro-5-(trifluoromethyl)pyridin-2-yl]-5-methyl-1H-pyrazole-4-carboxamide], for which 1 µM produced 13.6% inhibition at hERG. Moreover, in data set [1], the IC50 was determined as 54.6 nM.

Consider `COc1cc(C(F)(F)F)cnc1-n1ncc(C(=O)Nc2cnc(C3CCC4(CC3)OCCO4)c(C)c2)c1C` [Example D197], for which the inhibition at 1 µM against hERG is 0.8%. Besides, the half-inhibitory concentration (IC50) in data set [1] is 123 nM.

As to `Cc1cc(NC(=O)c2cnn(-c3ccc(C(C)C)cn3)c2C)cnc1C1=CCC(N2CCOCC2)CC1` (stereo not shown) [Example D200], the inhibition at 1 µM against hERG is 47.6%. For the same compound, the IC50 in data set [1] was determined as 58.4 nM.

For the compound `Cc1cc(NC(=O)c2cnn(-c3ccccc3)c2C)cnc1C1=CCC(N(C)C(=O)C(C)(C)C)CC1` (stereo not shown) [Example D214], the inhibition at 1 µM on hERG came out at 10%. The concentration for half-maximal inhibition (IC50) in data set [1] turned out to be 18.7 nM.

For the compound `Cc1cc(NC(=O)c2nn(C)c3ccccc23)cnc1C1=CCC(N(C)C(=O)C(C)(C)C)CC1` (stereo not shown) [Example D217], the inhibition at 1 µM at hERG was 26.7%. The IC50 in data set [1] was 84.4 nM.

Compound `Cc1cc(NC(=O)c2cnn(-c3ccc(F)cc3)c2C)cnc1C1=CCC(N(C)C(=O)C(C)C)CC1` (stereo not shown) [Example D219, 1-(4-Fluorophenyl)-N-{6-[4-(N-isobutyryl-N-methylamino)cyclohex-1-en-1-yl]-5-methylpyridin-3-yl}-5-methyl-1H-pyrazole-4-carboxamide] registered an inhibition at 1 µM against hERG of 11.4%. Besides, the IC50 in data set [1] stood at 59.5 nM.

In turn, `Cc1cc(NC(=O)c2cnn(-c3ccc(C(F)(F)F)cn3)c2C)cnc1C1=CCC(C(=O)N(C)C)CC1` (stereo not shown) [Example D221, N-[6-(4-N,N-Dimethylcarbamoylcyclohex-1-en-1-yl)-5-methylpyridin-3-yl]-5-methyl-1-[5-(trifluoromethyl)pyridin-2-yl]-1H-pyrazole-4-carboxamide] yielded an inhibition at 1 µM at hERG of 20.1%. For the same compound, the 50% inhibitory concentration (IC50) in data set [1] was 31.4 nM.

`Cc1cc(NC(=O)c2cnn(-c3ccc(C(F)(F)F)cn3)c2C)cnc1C1=CCC(NC(=O)C(C)(C)C)CC1` (stereo not shown) [Example D224] came in with an inhibition at 1 µM at hERG of 19.5%. In addition, in data set [1], the half-inhibitory concentration (IC50) was determined as 141 nM.

On to `Cc1cc(NC(=O)c2cnn(-c3ccc(C(F)(F)F)cn3)c2C)cnc1C1=CCC2(CC1)OCCO2` [Example D234], for which at 1 µM the inhibition on hERG was 5.6%. Further, the IC50 in data set [1] was 55.6 nM.

Consider `Cc1c(C(=O)Nc2ccc(C3CCC4(CC3)OCCO4)nc2)cnn1-c1ccc(C(F)(F)F)cn1` [Example D237], for which the inhibition at 1 µM against hERG amounted to 3.6%. Also, the IC50 in data set [1] amounted to 50.3 nM.

Broadly, the inhibition is the share of the control response that was lost under treatment. Read a low inhibition as little suppression. For orientation: IC50 means the concentration that gives 50% inhibition.
